ChEMBL document CHEMBL1146912, “Synthesis, radiolabeling, and in vivo evaluation of an 18F-labeled isatin analog for imaging caspase-3 activation in apoptosis” (Bioorg Med Chem Lett, 2006)

Tests used:
Caspase-3 = target: T1, Caspase-3 (Homo sapiens, UniProt P42574); assay: Inhibition of human recombinant caspase 3
T1 sequence (P42574 whole entry): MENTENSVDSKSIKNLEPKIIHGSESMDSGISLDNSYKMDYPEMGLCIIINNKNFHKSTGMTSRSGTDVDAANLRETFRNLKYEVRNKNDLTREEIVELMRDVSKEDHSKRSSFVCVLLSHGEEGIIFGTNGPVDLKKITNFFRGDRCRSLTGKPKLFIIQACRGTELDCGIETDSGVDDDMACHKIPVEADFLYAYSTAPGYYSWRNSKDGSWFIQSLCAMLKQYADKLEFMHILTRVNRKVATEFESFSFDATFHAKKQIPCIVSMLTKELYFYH

Caspase-6 = target: T2, Caspase-6 (Homo sapiens, UniProt P55212); assay: Inhibition of human recombinant caspase 6
T2 sequence (P55212 whole entry): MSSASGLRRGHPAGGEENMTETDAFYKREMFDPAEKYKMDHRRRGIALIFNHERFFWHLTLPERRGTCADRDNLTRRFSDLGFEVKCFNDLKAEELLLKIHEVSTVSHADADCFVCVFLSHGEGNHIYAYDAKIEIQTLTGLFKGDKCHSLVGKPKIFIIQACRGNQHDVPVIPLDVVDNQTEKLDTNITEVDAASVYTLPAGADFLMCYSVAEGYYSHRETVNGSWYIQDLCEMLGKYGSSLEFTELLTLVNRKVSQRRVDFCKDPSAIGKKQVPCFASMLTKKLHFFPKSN

Caspase-8 = Caspase-8 (Homo sapiens, UniProt Q14790); assay: Inhibition of human recombinant caspase 8
Caspase-1 = target: T3, Caspase-1 (Homo sapiens, UniProt P29466); assay: Inhibition of human recombinant caspase 1
T3 sequence (P29466 whole entry): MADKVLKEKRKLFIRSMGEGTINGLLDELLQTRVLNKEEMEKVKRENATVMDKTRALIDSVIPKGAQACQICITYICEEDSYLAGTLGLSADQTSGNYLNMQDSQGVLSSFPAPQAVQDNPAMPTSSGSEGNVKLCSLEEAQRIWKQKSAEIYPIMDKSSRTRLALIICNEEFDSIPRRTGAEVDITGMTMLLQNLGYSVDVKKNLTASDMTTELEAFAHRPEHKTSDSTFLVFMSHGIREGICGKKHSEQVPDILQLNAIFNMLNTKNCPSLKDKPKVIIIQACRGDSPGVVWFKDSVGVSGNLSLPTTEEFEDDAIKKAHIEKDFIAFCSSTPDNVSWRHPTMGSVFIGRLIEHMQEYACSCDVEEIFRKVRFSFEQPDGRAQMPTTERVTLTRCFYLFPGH

Rattus norvegicus [1] = species: Rattus norvegicus; assay: Increase in uptake in liver of cycloheximide-treated Sprague-Dawley rat relative to control after 1 hr; assay type: ADME, organism-based; details: in vivo
Rattus norvegicus [2] = species: Rattus norvegicus; assay: Increase in uptake in spleen of cycloheximide-treated Sprague-Dawley rat relative to control after 1 hr; assay type: ADME, organism-based; details: in vivo
Rattus norvegicus [3] = species: Rattus norvegicus; assay: Effect on uptake in fat of cycloheximide-treated Sprague-Dawley rat relative to control after 1 hr; assay type: ADME, organism-based, Adipose tissue; details: in vivo

Chain of Caspase-8 (Q14790 217-374 limits assumed): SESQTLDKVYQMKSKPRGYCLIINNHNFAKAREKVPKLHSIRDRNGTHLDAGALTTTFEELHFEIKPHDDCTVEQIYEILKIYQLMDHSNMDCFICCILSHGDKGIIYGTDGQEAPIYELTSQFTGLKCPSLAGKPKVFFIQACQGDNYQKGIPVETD
Chain of Caspase-8 (Q14790 385-479 limits assumed): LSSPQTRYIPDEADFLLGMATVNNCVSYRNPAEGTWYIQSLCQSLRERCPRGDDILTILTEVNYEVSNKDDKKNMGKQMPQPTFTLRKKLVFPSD

Row | Structure (SMILES) | IC50 (Caspase-3) | IC50 (Caspase-6) | IC50 (Caspase-8) | IC50 (Caspase-1) | Activity (Rattus norvegicus [1]) | Activity (Rattus norvegicus [2]) | Activity (Rattus norvegicus [3])
1 | O=C1C(=O)N(Cc2ccc(OCCF)cc2)c2ccc(S(=O)(=O)N3CCC[C@H]3COc3ccccc3)cc21 | 0.0097 µM | 3.7 µM | > 50 µM | > 50 µM |  |  | 
2 | O=C1C(=O)N(Cc2ccc(OCC[18F])cc2)c2ccc(S(=O)(=O)N3CCC[C@H]3COc3ccccc3)cc21 |  |  |  |  | 94% | 184% | Not Active
